Laboratory results as given in ChEMBL document CHEMBL3259687, “Synthesis and identification of chiral aminomethylpiperidine carboxamides as inhibitor of collagen induced platelet activation” (Eur J Med Chem, 2014).
The source made the active and inactive calls. The calls are words filed in the database; no cut-off is given here.

Columns and labels:
Platelet [1] = experiment: Antiplatelet activity in human platelet-rich plasma assessed as inhibition of TRAP-induced platelet aggregation treated for 5 mins prior to TRAP challenge for 5 mins by turbidimetric method; assay type: functional, cell-free
Platelet [2] = experiment: Antiplatelet activity in human platelet-rich plasma assessed as inhibition of ristocetin-induced platelet aggregation treated for 5 mins prior to ristocetin challenge for 5 mins by turbidimetric method; assay type: functional, cell-free
[3] = Antiplatelet activity in human platelet-rich plasma assessed as inhibition of collagen-induced platelet aggregation at 10 uM treated for 5 mins prior to collagen challenge for 5 mins by turbidimetric method; assay type: functional
Mus musculus [4] = experiment: Antithrombotic activity in mouse assessed as protection against collagen-epinephrine-induced pulmonary thromboembolism at 30 uM/kg, po administered 60 mins prior to thrombotic challenge; assay type: functional
Mus musculus [5] = experiment: Antithrombotic activity in mouse assessed as protection against collagen-epinephrine-induced pulmonary thromboembolism at 30 uM/kg, po administered 60 mins prior to thrombotic challenge measured for more than 24 hrs post-drug dose; assay type: functional, organism-based
Platelet [6] = experiment: Antiplatelet activity in human platelet-rich plasma assessed as inhibition of convulxin-induced platelet aggregation treated for 5 mins prior to convulxin challenge for 5 mins by turbidimetric method; assay type: functional, cell-free
Platelet [7] = experiment: Antiplatelet activity in human platelet-rich plasma assessed as inhibition of ADP-induced platelet aggregation treated for 5 mins prior to ADP challenge for 5 mins by turbidimetric method; assay type: functional, cell-free
[8] = (§1) Antiplatelet activity in human platelet-rich plasma assessed as inhibition of collagen-induced platelet aggregation treated for 5 mins prior to collagen challenge for 5 mins by turbidimetric method; assay type: functional, cell-free; details: for IC50: Homo sapiens, Platelet, Plasma
Platelet [9] = experiment: Antiplatelet activity in human platelet-rich plasma assessed as inhibition of CRP-XL-induced platelet aggregation up to 500 uM treated for 5 mins prior to CRP-XL challenge for 5 mins by turbidimetric method; assay type: functional, cell-free
[10] = Antiplatelet activity in human platelet-rich plasma assessed as inhibition of arachidonic acid-induced platelet aggregation treated for 5 mins prior to arachidonic acid challenge for 5 mins by turbidimetric method; assay type: functional, cell-free; details: for IC50: Homo sapiens, Platelet, Plasma
Platelet [11] = experiment: as §1; assay type: functional, cell-free
Platelet [12] = experiment: (§2) Antiplatelet activity in human platelet-rich plasma assessed as inhibition of U46619-induced platelet aggregation treated for 5 mins prior to U46619 challenge for 5 mins by turbidimetric method; assay type: functional, cell-free
[13] = as §2; assay type: functional, cell-free; details: for IC50: Homo sapiens, Platelet, Plasma
Mus musculus [14] = experiment: Prolongation of bleeding time in mouse at 30 uM/kg, po administered as single dose by tail excision method; assay type: ADME, organism-based; details: in vivo
Mus musculus [15] = experiment: Antithrombotic activity in mouse assessed as protection against collagen-epinephrine-induced pulmonary thromboembolism at 30 uM/kg, po administered 60 mins prior to thrombotic challenge measured for up to 12 hrs post-drug dose; assay type: functional, organism-based
Mus musculus [16] = experiment: Prolongation of bleeding time in mouse at 30 uM/kg, po administered as single dose by tail excision method relative to control; assay type: ADME, organism-based; details: in vivo
Mus musculus [17] = experiment: Antithrombotic activity in mouse assessed as protection against collagen-epinephrine-induced pulmonary thromboembolism at 30 uM/kg, po administered 60 mins prior to thrombotic challenge measured for up to 18 hrs post-drug dose; assay type: functional, organism-based
[18] = Antiplatelet activity in human platelet-rich plasma assessed as inhibition of collagen-induced platelet aggregation at 30 uM treated for 5 mins prior to collagen challenge for 5 mins by turbidimetric method; assay type: functional
Mus musculus [19] = experiment: Antithrombotic activity in mouse assessed as protection against collagen-epinephrine-induced pulmonary thromboembolism at 30 uM/kg, po administered 60 mins prior to thrombotic challenge measured at >18 hrs post-drug dose; assay type: functional, organism-based
Mus musculus [20] = experiment: Antithrombotic activity in mouse assessed as protection against collagen-epinephrine-induced pulmonary thromboembolism at 170 uM/kg, po administered 60 mins prior to thrombotic challenge measured for up to 5 hrs post-drug dose; assay type: functional, organism-based
Mus musculus [21] = experiment: Antithrombotic activity in mouse assessed as protection against collagen-epinephrine-induced pulmonary thromboembolism at 170 uM/kg, po administered 60 mins prior to thrombotic challenge; assay type: functional
Mus musculus [22] = experiment: Prolongation of bleeding time in mouse at 170 uM/kg, po administered as single dose by tail excision method relative to control; assay type: ADME, organism-based; details: in vivo

## Cc1ccc(CN2C(=O)CC[C@H]2C(=O)N2CCC[C@@H](CNC(=O)OC(C)(C)C)C2)cc1
Platelet [1]
  inhibition: inactive
Platelet [2]
  inhibition: inactive
[3]
  inhibition at 10 µM: 49%
Mus musculus [4]
  Activity: 60%
Mus musculus [5]
  Activity: Active
Platelet [6]
  inhibition: inactive
Platelet [7]
  inhibition: inactive
[8]
  IC50: 6.6 µM
Platelet [9]
  inhibition: Active

## Cc1ccc(CN2C(=O)SC[C@H]2C(=O)N2CCC[C@@H](CNC(=O)OC(C)(C)C)C2)cc1
Platelet [1]
  inhibition: inactive
Platelet [2]
  inhibition: inactive
Mus musculus [4]
  Activity: 40%
[10]
  inhibition (INH): 15%
  IC50: > 100 µM
Platelet [7]
  inhibition: inactive
Platelet [11]
  inhibition: Dose-dependent effect
[8]
  inhibition (INH): 81%
  IC50: 6.4 µM
Platelet [12]
  inhibition: Dose-dependent effect
[13]
  inhibition (INH): 75%
  IC50: 6.4 µM
Mus musculus [14]
  Activity: 43%

## Cc1ccc(CN2C(=O)CC[C@H]2C(=O)N2CCC[C@H](CNC(=O)OC(C)(C)C)C2)cc1
Platelet [1]
  inhibition: inactive
Platelet [2]
  inhibition: inactive
[3]
  inhibition at 10 µM: 30%
Mus musculus [4]
  Activity: 50%
Mus musculus [15]
  Activity: Active
Platelet [7]
  inhibition: inactive
[8]
  IC50: 37 µM

## Cc1ccc(CN2C(=O)SC[C@H]2C(=O)N2CCC[C@H](CNC(=O)OC(C)(C)C)C2)cc1
Platelet [1]
  inhibition: inactive
Platelet [2]
  inhibition: inactive
Mus musculus [4]
  Activity: 50%
[10]
  inhibition (INH): 8%
  IC50: > 100 µM
Platelet [7]
  inhibition: inactive
Platelet [11]
  inhibition: Dose-dependent effect
[8]
  inhibition (INH): 83%
  IC50: 6 µM
Platelet [12]
  inhibition: Dose-dependent effect
[13]
  inhibition (INH): 64%
  IC50: 10.2 µM
Mus musculus [14]
  Activity: 50%

## Cc1ccc(CN2CSC[C@H]2C(=O)N2CCC[C@@H](CNC(=O)OC(C)(C)C)C2)cc1
Platelet [1]
  inhibition: inactive
Platelet [2]
  inhibition: inactive
Mus musculus [4]
  Activity: 50%
[10]
  inhibition (INH): 25%
  IC50: > 100 µM
Platelet [7]
  inhibition: inactive
Platelet [11]
  inhibition: Dose-dependent effect
[8]
  inhibition (INH): 74%
  IC50: 8 µM
Platelet [12]
  inhibition: Dose-dependent effect
[13]
  inhibition (INH): 96%
  IC50: 4.7 µM
Mus musculus [14]
  Activity: 50%

## Cc1ccc(CN2C(=O)CC[C@H]2C(=O)N2CCCC(CNC(=O)OC(C)(C)C)C2)cc1 (mixture of isomers)
Platelet [1]
  inhibition: inactive
Mus musculus [16]
  fold change (FC): 1.5
Platelet [2]
  inhibition: inactive
Mus musculus [4]
  Activity: 60%
Mus musculus [17]
  Activity: Active
[18]
  inhibition at 30 µM: 77.3%
Mus musculus [19]
  Activity: inactive
Platelet [7]
  inhibition: inactive
[8]
  IC50: 16 µM
Mus musculus [14]
  Activity: 50%

## CC(=O)Oc1ccccc1C(=O)O [ASPIRIN]
Mus musculus [20]
  Activity: Active
Mus musculus [21]
  Activity: 40%
[10]
  IC50: 5 µM
Mus musculus [22]
  fold change (FC): 2.2
